Consider 20 compounds from patent US5463062A, “Substituted cyclohexane derivatives, processes for their preparation and the use of the compounds for treating diseases” (Hoechst Aktiengesellschaft, priority 1992, dated 1995).

Structures are written as SMILES.

One may read the IC50 as the concentration that gives 50% inhibition.

For one assay, the system named is glucose-6-phosphatase. The conditions noted are these: in words, literature; cited from earlier work.
Assay [1] addresses T1, glucose-6-phosphatase system (Rattus norvegicus, UniProt F7EWB7).
T1 construct: To prepare the microsomal fraction containing the glucose-6-phosphatase, fresh liver organs from male Wistar rats were used; from tissue; host or cells: liver of male Wistar rats, microsomal fraction
T1 sequence (F7EWB7 1-429): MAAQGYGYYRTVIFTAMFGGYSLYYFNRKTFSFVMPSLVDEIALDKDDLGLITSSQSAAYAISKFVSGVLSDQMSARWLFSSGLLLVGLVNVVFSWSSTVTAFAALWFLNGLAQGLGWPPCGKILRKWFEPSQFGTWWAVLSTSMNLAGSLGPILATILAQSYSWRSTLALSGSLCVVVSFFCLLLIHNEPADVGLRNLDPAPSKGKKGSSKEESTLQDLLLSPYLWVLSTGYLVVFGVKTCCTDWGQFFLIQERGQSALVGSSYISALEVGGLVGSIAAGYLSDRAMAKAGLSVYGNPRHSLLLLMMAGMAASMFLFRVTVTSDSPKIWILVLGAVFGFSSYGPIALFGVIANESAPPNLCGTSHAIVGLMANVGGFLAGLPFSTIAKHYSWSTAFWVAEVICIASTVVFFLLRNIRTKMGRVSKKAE
Kind of assay: enzyme assay of glucose-6-phosphatase activity in liver microsomes (phosphate liberated from glucose-6-phosphate). To be noted: for IC50: rat liver microsomes, glucose-6-phosphate 1 mmol/l, pH 7.0, 20 min at room temperature. The format is biochemical, male Wistar rats. On the procedure:
The effect of the compounds according to the invention on the glucose-6-phosphatase system has been investigated in an enzyme assay in liver microsomes.
To prepare the microsomal fraction containing the glucose-6-phosphatase, fresh liver organs from male Wistar rats were used and processed as described in the literature [Canfield, W. K. and Arion, W. J., J. Biol. Chem. 263, 7458-7460, (1988)]. This microsomal fraction can be stored at -70° C. without significant loss of activity for at least 2 months. The glucose-6-phosphatase activity was detected as indicated in the literature [Arion, W. J. in Methods Enzymol. 174, Academic Press 1989, pages 58-67) by determining the phosphate liberated from glucose-6-phosphate. 0.1 ml of assay mixture contained glucose-6-phosphate(1 mmol/l), the test substance, 0.1 mg of microsomal fraction and 100 mmol/l HEPES buffer (4-(2-hydroxyethyl)piperazine-1-ethanesulfonic acid), pH 7.0. The reaction was started by adding the enzyme. After 20 min at room temperature, the reaction was stopped by adding 0.2 ml of phosphate reagent. The sample was incubated at 37° C. for 30 min, and the absorption (A) of the blue color was subsequently measured at 570 nm. The inhibitory activity of the test substance was found by comparison with a control reaction which contained no test substance, using the formula [formula]
Where necessary, the inhibitory effect of the test substance was determined as a function of the test substance concentration employed, and from this the concentration for 50% inhibition of enzyme activity (IC50) was calculated.
The IC50 was determined for the compounds listed hereinafter: […]
(In general: Liver microsomes are vesicles of endoplasmic reticulum, rich in cytochrome P450 enzymes.)

For `O=C(O)c1cc(SSc2ccc([N+](=O)[O-])c(C(=O)O)c2)ccc1[N+](=O)[O-]` [5,5'-dithiobis-2-nitrobenzoic acid], the “inhibition of glucose-6-phosphatase” value in the assay on glucose-6-phosphatase is listed as “non-specific inhibitors of glucose-6-phosphatase”.
For the compound `O=C(/C=C/c1ccc(O)cc1)O[C@@H]1C[C@](OCc2ccccc2)(C(=O)O)C[C@H](O)[C@H]1O` [Example 1, [1S,3R,4R,5S]-3-[(E)-3-(4-hydroxyphenyl)propenoyl]oxy-4,5-dihydroxy-1-phenylmethyloxy-cyclohexanecarboxylic acid], the IC50 in assay [1] worked out at 190 µM.
Take `O=C(/C=C/c1ccc(O)cc1)O[C@@H]1C[C@](OCc2cccc3ccccc23)(C(=O)O)C[C@H](O)[C@H]1O` [Example 14, [1S,3R,4R,5S]-1-(1-naphthylmethyl)oxy-3-[(E)-3-(4-hydroxyphenyl)-2-propenoyl]oxy-4,5-dihydroxycyclohexanecarboxylic acid]: in assay [1] (in words), the “inhibition of the glucose-6-phosphatase system” value was “inhibitors of the glucose-6phosphatase system”.
In the case of `C#CCO[C@@]1(C(=O)O)C[C@H](O)[C@@H](O)[C@H](OC(=O)/C=C/c2ccc(O)cc2)C1` [Example 3, [1S,3R,4R,5S]-3-[(E)-3-(4-hydroxyphenyl)-2-propenoyl]oxy-4,5-dihydroxy-1-(2-propynyl)oxycyclohexanecarboxylic acid], the IC50 in assay [1] stood at 560 µM.
On to `O=C(COc1ccccc1)O[C@@H]1C[C@](OCCCc2ccc(Cl)cc2)(C(=O)O)C[C@@H](O)[C@H]1O` [Example 119], for which the IC50 in assay [1] (TABLE) was 12 µM.
On to `O=C(CCCCC1CCCCC1)O[C@@H]1C[C@](OCCCc2ccc(Cl)cc2)(C(=O)O)C[C@@H](O)[C@H]1O` [Example 114], for which the IC50 in assay [1] (TABLE) came out at 5 µM.
Consider `O=C(CCC1CCCCC1)O[C@@H]1C[C@](OCC2CC2c2ccc(Cl)cc2)(C(=O)O)C[C@@H](O)[C@H]1O` (some centres unmarked) [Example 113], for which the IC50 in assay [1] (TABLE) was 3.7 µM.
For the compound `O=C(CCc1ccc(O)cc1)c1c(O)cc(O)cc1O[C@@H]1O[C@H](CO)[C@@H](O)[C@H](O)[C@H]1O` [phlorrhizin], the “inhibition of glucose-6-phosphatase” value in the assay with glucose-6-phosphatase is listed as “non-specific inhibitors of glucose-6-phosphatase”.
For the compound `O=C(O[C@@H]1C[C@](OCCCc2ccc(Cl)cc2)(C(=O)O)C[C@@H](O)[C@H]1O)C1CCCCC1` [Example 115], the IC50 in assay [1] (TABLE) is 8.9 µM.
As to `S=C=Nc1ccccc1C=Cc1ccccc1N=C=S` [2,2'-diisothiocyanatostilbene], in the assay with glucose-6-phosphatase, the “inhibition of glucose-6-phosphatase” value is listed as “non-specific inhibitors of glucose-6-phosphatase”.
With `O=C(CCC1CCCCC1)O[C@@H]1C[C@](OCCCc2ccc(Cl)cc2)(C(=O)O)C[C@@H](O)[C@H]1O` [Example 120], the half-inhibitory concentration (IC50) in assay [1] (TABLE) was 0.69 µM.
As to `C=Cc1ccc(C(=O)O[C@@H]2C[C@](OCCCc3ccc(Cl)cc3)(C(=O)O)C[C@@H](O)[C@H]2O)cc1` [Example 118], the IC50 in assay [1] (TABLE) amounted to 1.3 µM.
On to `CCCO[C@@]1(C(=O)O)C[C@H](O)[C@@H](O)[C@H](OC(=O)/C=C/c2ccc(O)cc2)C1` [Example 8, [1S,3R,4R,5S]-3-[(E)-3-(4-hydroxyphenyl)-2-propenoyl]oxy-4,5-dihydroxy-1-propyloxycyclohexanecarboxylic acid], for which, in assay [1] (unit printed as "82 M"), the IC50 is 230 µM.
With `O=C(O[C@@H]1C[C@](OCCCc2ccc(Cl)cc2)(C(=O)O)C[C@H](O)[C@H]1O)c1ccccn1` [Example 4, [1S,3R,4R,5S]-1-(4-chlorophenylpropyl)oxy-4,5-dihydroxy-3-(2-pyridinecarbonyl)oxycyclohexanecarboxylic acid], in assay [1], the IC50 was 26 µM.
In the case of `CC(=O)Oc1ccccc1C=Cc1ccccc1N=C=S` [2-isothiocyanato-2'-acetoxystilbene], the “inhibition of glucose-6-phosphatase” value in the assay with glucose-6-phosphatase is on record as “non-specific inhibitors of glucose-6-phosphatase”.
Consider `O=C(/C=C/c1ccc(O)cc1)O[C@@H]1C[C@](OCc2cccs2)(C(=O)O)C[C@H](O)[C@H]1O` [Example 2, [1S,3R,4R,5S]-3-[(E)-3-(4-hydroxyphenyl)-2-propenoyl]oxy-4,5-dihydroxy-1-(2-thienylmethyl)oxycyclohexanecarboxylic acid], for which the IC50 in assay [1] amounted to 110 µM.
Consider `O=C(CCc1ccc(O)cc1)O[C@@H]1C[C@](OCCCc2ccc(Cl)cc2)(C(=O)O)C[C@@H](O)[C@H]1O` [Example 44, [1S,3R,4R,5S]-1-(4-chlorophenylpropyl)oxy-3-[(E)-3-(4-hydroxyphenyl)propoyl]oxy-4,5-dihydroxycyclohexanecarboxylic acid], for which the IC50 in assay [1] is 9.3 µM.
With `CC(C)CCC(=O)O[C@@H]1C[C@](OCCCc2ccc(Cl)cc2)(C(=O)O)C[C@@H](O)[C@H]1O` [Example 117], the IC50 in assay [1] (TABLE) came to 41 µM.
`O=C(O[C@@H]1C[C@](OCCCc2ccc(Cl)cc2)(C(=O)O)C[C@@H](O)[C@H]1O)c1snnc1-c1ccccc1` [Example 116]: in assay [1] (TABLE), the IC50 was determined as 4.5 µM.
Consider `O=C(CC(C1CCCCC1)n1ccnc1)O[C@@H]1C[C@](OCCCc2ccc(Cl)cc2)(C(=O)O)C[C@@H](O)[C@H]1O` (some centres unmarked) [Example 69], for which, in assay [1] (TABLE), the IC50 was found to be 170 µM.
